{"source": "patent US20090239845A1", "about": "“PYRAZOLE COMPOUNDS AS PROSTAGLANDIN RECEPTORS LIGANDS” (priority 2005, published 2009)", "note": "Counter-ions that a name gives are not always drawn."}
{"target": "T1, human EP1 receptor (Homo sapiens, UniProt P34995)", "T1 construct": "expressed in transfected cells; host or cells: CHO-K1", "T1 sequence (P34995 1-402)": "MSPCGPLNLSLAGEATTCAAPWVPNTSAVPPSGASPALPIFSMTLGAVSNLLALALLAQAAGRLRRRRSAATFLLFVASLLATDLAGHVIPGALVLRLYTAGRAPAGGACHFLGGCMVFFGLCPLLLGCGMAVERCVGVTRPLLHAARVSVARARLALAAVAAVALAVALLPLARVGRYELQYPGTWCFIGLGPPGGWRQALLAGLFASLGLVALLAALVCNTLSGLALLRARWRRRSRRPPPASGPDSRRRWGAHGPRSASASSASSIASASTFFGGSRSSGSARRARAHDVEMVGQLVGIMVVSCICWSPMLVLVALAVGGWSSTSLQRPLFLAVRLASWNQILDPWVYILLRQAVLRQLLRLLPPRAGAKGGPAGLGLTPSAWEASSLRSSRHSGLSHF", "test": "human EP1 calcium mobilisation assay", "type": "cell-based", "conditions": "negative logarithm10 of the antagonist dissociation constant; CHO-K1 cells, PGE2; free bases or sodium salts; averages of a number of experiments; read-out: functional pKi value (converted)", "description": "Briefly, the antagonist properties of compounds are assessed by their ability to inhibit the mobilisation of intracellular calcium ([Ca^2+]i) in response to activation of EP1 or EP3 receptors by the natural agonist hormone prostaglandin E2 (PGE2). Increasing concentrations of antagonist reduce the amount of calcium that a given concentration of PGE2 can mobilise. The net effect is to displace the PGE2 concentration-effect curve to higher concentrations of PGE2. The amount of calcium produced is assessed using a calcium-sensitive fluorescent dye such as Fluo-4, AM and a suitable instrument such as a Fluorimetric Imaging Plate Reader (FLIPR). Increasing amounts of [Ca^2+]i produced by receptor activation increase the amount of fluorescence produced by the dye and give rise to an increasing signal. The signal may be detected using the FLIPR instrument and the data generated may be analysed with suitable curve-fitting software.\nThe human EP1 or EP3 calcium mobilisation assay (hereafter referred to as ‘the calcium assay’) utilises Chinese hamster ovary-K1 (CHO-K1) cells into which a stable (pCIN; BioTechniques 20 (1996): 102-110) vector containing either EP1 or EP3 cDNA has previously been transfected. Cells are cultured in suitable flasks containing culture medium such as DMEM:F-12 supplemented with 10% v/v foetal calf serum, 2 mM L-glutamine, 0.25 mg/ml geneticin, 100 μM flurbiprofen and 10 μg/ml puromycin.\nFor assay, cells are harvested using a proprietary reagent that dislodges cells such as Versene. Cells are re-suspended in a suitable quantity of fresh culture media for introduction into a 384-well plate. Following incubation for 24 hours at 37° C. the culture media is replaced with a medium containing Fluo-4 and the detergent pluronic acid, and a further incubation takes place. Concentrations of compounds are then added to the plate in order to construct concentration-effect curves. This may be performed on the FLIPR in order to assess the agonist properties of the compounds. Concentrations of PGE2 are then added to the plate in order to assess the antagonist properties of the compounds.\nThe data so generated may be analysed by means of a computerised curve-fitting routine. The concentration of compound that elicits a half-maximal inhibition of the calcium mobilisation induced by PGE2 (plC50) may then be estimated.", "units": {"Ki": "nM"}}
{"smiles": "Cc1cc(C(=O)Nc2ccc(C#N)cc2)nn1Cc1cc(Cl)ccc1OCc1ccccc1", "note": "[Example 306, 1-({5-Chloro-2-[(phenylmethyl)oxy]phenyl}methyl)-N-(4-cyanophenyl)-5-methyl-1H-pyrazole-3-carboxamide]", "Ki": "> 1000"}
{"smiles": "CNC(=O)c1cc(C)n(Cc2cc(Cl)ccc2OCc2ccccc2)n1", "note": "[Example 296, 1-({5-Chloro-2-[(phenylmethyl)oxy]phenyl}methyl)-N,5-dimethyl-1H-pyrazole-3-carboxamide]", "Ki": "> 1000"}
{"smiles": "Cc1cc(C(=O)NCc2ccccn2)nn1Cc1cc(Cl)ccc1OCc1cc(F)c(F)cc1F", "note": "[Example 338, 1-[(5-Chloro-2-{[(2,4,5-trifluorophenyl)methyl]oxy}phe-nyl)methyl]-5-methyl-N-(2-pyridinylmethyl)-1H-pyrazole-3-carboxamide]", "Ki": "> 1000"}
{"smiles": "Cc1cc(NC(=O)Cc2ccccc2)nn1Cc1cc(Cl)ccc1OCc1ccc(F)c(F)c1F", "note": "[Example 123, N-{1-[(5-Chloro-2-{[(2,3,4-trifluorophenyl)methyl]oxy}phenyl)methyl]-5-methyl-1H-pyrazol-3-yl}-2-phenylacetamide]", "Ki": "> 1000"}
{"smiles": "Cc1cc(N2CCN(Cc3ccccc3)CC2)nn1Cc1cc(Cl)ccc1OCc1ccccc1", "note": "[Example 288, 4-[1-({5-Chloro-2-[(phenylmethyl)oxy]phenyl}methyl)-5-methyl-1H-pyrazol-3-yl]-1-(phenylmethyl)piperazin-1-ium chloride]", "Ki": "> 1000"}
{"smiles": "Cc1cc(N2CCN(Cc3ccc(Cl)cc3)CC2=O)nn1Cc1cc(Cl)ccc1OCC1CCCCO1", "note": "(stereo not drawn) [Example 284, 4-[(4-Chlorophenyl)methyl]-1-[1-({5-chloro-2-[(tetrahydro-2H-pyran-2-ylmethyl)oxy]phenyl}methyl)-5-methyl-1H-pyrazol-3-yl]-2-piperazinone]", "Ki": "> 1000"}
{"smiles": "Cc1cc(C(=O)Nc2ccccc2C#N)nn1Cc1cc(Cl)ccc1OCc1ccccc1", "note": "[Example 304, 1-({5-Chloro-2-[(phenylmethyl)oxy]phenyl}methyl)-N-(2-cyanophenyl)-5-methyl-1H-pyrazole-3-carboxamide]", "Ki": "> 1000"}
{"smiles": "Cc1cc(NC(=O)c2ccc3c(c2)CCN(C(=O)OC(C)(C)C)CC3)nn1Cc1cc(Cl)ccc1OCC(C)C", "note": "[Example 97, 1,1-Dimethylethyl 7-({[1-({5-chloro-2-[(2-methylpropyl)oxy]phenyl}methyl)-5-methyl-1H-pyrazol-3-yl]amino}carbonyl)-1,2,4,5-tetrahydro-3H-3-benzazepine-3-carboxylate]", "Ki": "> 1000"}
{"smiles": "Cc1cc(C(=O)NC(C)C)nn1Cc1cc(Cl)ccc1OCc1ccccc1", "note": "[Example 290, 1-({5-Chloro-2-[(phenylmethyl)oxy]phenyl}methyl)-5-methyl-N-(1-methylethyl)-1H-pyrazole-3-carboxamide]", "Ki": "> 1000"}
{"smiles": "Cc1cc(NC(=O)Cc2ccccc2)nn1Cc1cc(Cl)ccc1OCc1ccc(F)cc1F", "note": "[Example 122, N-{1-[(5-Chloro-2-{[(2,4-difluorophenyl)methyl]oxy}phenyl)methyl]-5-methyl-1H-pyrazol-3-yl}-2-phenylacetamide]", "Ki": "> 1000"}
{"smiles": "Cc1cc(NC(=O)c2cccnc2)nn1Cc1cc(Cl)ccc1OCc1ccccc1", "note": "[Example 145, N-[1-({5-Chloro-2-[(phenylmethyl)oxy]phenyl}methyl)-5-methyl-1H-pyrazol-3-yl]-3-pyridinecarboxamide]", "Ki": "> 1000"}
{"smiles": "Cc1cc(-c2nc3ccccc3[nH]2)nn1Cc1cc(Cl)ccc1OCc1ccccc1", "note": "[Example 385, 2-[1-({5-Chloro-2-[(phenylmethyl)oxy]phenyl}methyl)-5-methyl-1H-pyrazol-3-yl]-1H-benzimidazole]", "Ki": "> 1000"}
{"smiles": "Cc1cc(OC(=O)NC2CCCCC2)nn1Cc1cc(Cl)ccc1OCC(C)C", "note": "[Example 51, 1-({5-Chloro-2-[(2-methylpropyl)oxy]phenyl}methyl)-5-methyl-1H-pyrazol-3-yl cyclohexylcarbamate]", "Ki": "> 1000"}
{"smiles": "Cc1cc(C(=O)Nc2ccccn2)nn1Cc1cc(Cl)ccc1OCc1ccccc1", "note": "[Example 297, 1-({5-Chloro-2-[(phenylmethyl)oxy]phenyl}methyl)-5-methyl-N-2-pyridinyl-1H-pyrazole-3-carboxamide]", "Ki": "> 1000"}
{"smiles": "Cc1cc(-c2cnc(N3CCOCC3)[nH]2)nn1Cc1cc(Cl)ccc1OCc1ccccc1", "note": "[Example 485, 4-{4-[1-({5-Chloro-2-[(phenylmethyl)oxy]phenyl}methyl)-5-methyl-1H-pyrazol-3-yl]-1H-imidazol-2-yl}morpholine dihydrochloride]", "Ki": "> 1000"}
{"smiles": "Cc1cc(-c2nc3cc(F)c(F)cc3[nH]2)nn1Cc1cc(Cl)ccc1OCC(C)C", "note": "[Example 376, 2-[1-({5-Chloro-2-[(2-methylpropyl)oxy]phenyl}methyl)-5-methyl-1H-pyrazol-3-yl]-5,6-difluoro-1H-benzimidazole]", "Ki": "> 1000"}
{"smiles": "Cc1cc(OC(=O)NCc2ccc(CNC(=O)OC(C)(C)C)cc2)nn1Cc1cc(Cl)ccc1OCc1ccccc1", "note": "[Example 59, 1-({5-Chloro-2-[(phenylmethyl)oxy]phenyl}methyl)-5-methyl-1H-pyrazol-3-yl 1,1-dimethylethyl (benzene-1,4-dildimethanediyl)biscarbamate]", "Ki": "> 1000"}
{"smiles": "Cc1cc(C(=O)NCc2cccnc2)nn1Cc1cc(Cl)ccc1OCc1ccccc1", "note": "[Example 294, 1-({5-Chloro-2-[(phenylmethyl)oxy]phenyl}methyl)-5-methyl-N-(3-pyridinylmethyl)-1H-pyrazole-3-carboxamide]", "Ki": "> 1000"}
{"smiles": "CC(=O)Nc1cc(C)n(Cc2cc(Cl)ccc2OCc2ccccc2)n1", "note": "[Example 104, N-[1-({5-Chloro-2-[(phenylmethyl)oxy]phenyl}methyl)-5-methyl-1H-pyrazol-3-yl]acetamide]", "Ki": "> 1000"}
{"smiles": "Cc1cc(NC(=O)Cc2ccccc2)nn1Cc1cc(Cl)ccc1OCc1ccc(F)cc1", "note": "[Example 121, N-{1-[(5-Chloro-2-{[(4-fluorophenyl)methyl]oxy}phenyl)methyl]-5-methyl-1H-pyrazol-3-yl}-2-phenylacetamide]", "Ki": "> 1000"}
{"smiles": "CCN(CC)Cc1ccc(C(=O)Nc2cc(C)n(Cc3cc(Cl)ccc3OCC(C)C)n2)cc1F", "note": "[Example 435, N-[1-({5-chloro-2-[(2-methylpropyl)oxy]phenyl}methyl)-5-methyl-1H-pyrazol-3-yl]-4-[(diethylamino)methyl]-3-fluorobenzamide hydrochloride]", "Ki": "> 1000"}
{"smiles": "CCOC(=O)Nc1cc(C)n(Cc2cc(Cl)ccc2OCc2ccccc2)n1", "note": "[Example 66, Ethyl [1-({5-chloro-2-[(phenylmethyl)oxy]phenyl}methyl)-5-methyl-1H-pyrazol-3-yl]carbamate]", "Ki": "> 1000"}
{"smiles": "Cc1cc(S(=O)(=O)NC(=O)c2ccccc2)nn1Cc1cc(Cl)ccc1OCc1ccccc1", "note": "[Example 359, N-{[1-({5-Chloro-2-[(phenylmethyl)oxy]phenyl}methyl)-5-methyl-1H-pyrazol-3-yl]sulfonyl}benzamide]", "Ki": "> 1000"}
{"smiles": "Cc1cc(C(=O)NCc2ccccn2)nn1Cc1cc(Cl)ccc1OCc1ccc(F)c(F)c1F", "note": "[Example 339, 1-[(5-Chloro-2-{[(2,3,4-trifluoro-phenyl)methyl]oxy}phe-nyl)methyl]-5-methyl-N-(2-pyridinylmethyl)-1H-pyrazole-3-carboxamide]", "Ki": "> 1000"}
{"smiles": "COC(=O)Nc1cc(C)n(Cc2cc(Cl)ccc2OCc2ccccc2)n1", "note": "[Example 65, Methyl[1-({5-chloro-2-[(phenylmethyl)oxy]phenyl}methyl)-5-methyl-1H-pyrazol-3-yl]carbamate]", "Ki": "> 1000"}
{"smiles": "CNCc1ccc(NC(=O)c2cc(C)n(Cc3cc(Cl)ccc3OCC(C)C)n2)c(OC)c1", "note": "[Example 412, 1-({5-Chloro-2-[(2-methylpropyl)oxy]phenyl}methyl)-5-methyl-N-[4-[(methylamino)methyl]-2-(methyloxy)phenyl]-1H-pyrazole-3-carboxamide hydrochloride]", "Ki": "> 1000"}
{"smiles": "Cc1cc(-c2cnc(-c3cnccn3)[nH]2)nn1Cc1cc(Cl)ccc1OCc1ccccc1", "note": "[Example 482, 2-{4-[1-({5-chloro-2-[(phenylmethyl)oxy]phenyl}methyl)-5-methyl-1H-pyrazol-3-yl]-1H-imidazol-2-yl}pyrazine]", "Ki": "> 1000"}
